We go through five compounds from patent US6375926B1, “Labelled elastase inhibitors” (Amersham International PLC, priority 1996, dated 2002).

The test system of series [1] is isolated human white cells (granulocytes; monocytes + lymphocytes). Nature of the series: In vitro cell uptake in isolated human white cells. Format: cell-based. To be noted: for selectivity for granulocytes over a mixture of monocytes/lymphocytes: approximately equivalent numbers of monocytes/lymphocytes and granulocytes present; for % uptake in Gran. (granulocytes), WHITE CELLS / % uptake in Mon. (monocytes + lymphocytes), WHITE CELLS: isolated human white cells, 30 minutes at 37° C., radiolabelled compound. The protocol:
Fresh blood (30-120 ml) was anticoagulated with 1.5% ACD solution and sedimented by addition of 2 ml Hespan per 10 ml blood for 90 minutes at room temperature. The leucocyte rich platelet rich plasma supernatant was removed and centrifuged at 150 g for 5 minutes, yielding a leucocyte rich pellet and platelet rich plasma (PRP). The PRP was centrifuged at 4000 g to pellet the platelets leaving a cell free plasma (CFP). The leucocyte pellet was resuspended in a 50:50 mixture of HBSS and CFP and incubated with the radioactive compound for 30 minutes at 37° C. Free radioactive material was then removed from the cells by addition of an excess of HBSS:CFP and centrifugation of the leucocytes at 150 g for 7 minutes. The supernatant and cell pellet were taken for radioactive counting for calculation of percentage cell uptake. The distribution of radioactivity within the cell pellet was assessed by separation of the cell types using Percoll density gradient centrifugation (38%, 55% and 73% Percoll in HBSS step gradients). The residual plasma and free activity was recovered from the top of the gradient, the mononuclear cells (lymphocytes and monocytes) from the interface between 38% and 55%, and the granulocytes were recovered from the interface between 55% and 73% Percoll.

For series [2], the target named is T1, HLE (human leucocyte elastase) (Homo sapiens, UniProt P08246).
T1 sequence (P08246 30-267): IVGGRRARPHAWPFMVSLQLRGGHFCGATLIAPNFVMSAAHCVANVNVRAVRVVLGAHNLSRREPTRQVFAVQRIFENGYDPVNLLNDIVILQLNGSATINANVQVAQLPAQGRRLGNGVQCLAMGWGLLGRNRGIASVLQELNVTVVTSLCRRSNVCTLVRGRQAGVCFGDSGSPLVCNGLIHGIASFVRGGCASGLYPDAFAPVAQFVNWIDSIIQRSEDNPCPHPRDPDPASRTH
The series is described as follows: Measurement of HLE inhibition potency (kinact/Ki). It is filed as biochemical. Also on record: Potency (M/sec), kinact/Ki: unit not given here. To be noted: for kinact/Ki (human elastase): as listed in Table 24 beside the radiolabelled compounds. The protocol: Inhibitor potency against HLE is described by the parameter kinact/Ki as previously reported [Knight et al., Biochem., 8160-8170, (1992)]. Lyophilised enzyme was reconstituted with TrisHCl buffer, 100 mM, 0.5M NaCl at 0.05 units/ml (approximately nanomolar concentration) in a final reaction volume of 1 ml to which was added methoxysucc-ala-ala-pro-val-pNA substrate (1 mM) and the elastase inhibitor dissolved in DMSO. The reaction was monitored by detecting the change of absorbance at 410 nm (hydrolysis of the substrate releasing p-nitroaniline) over a timescale of 25 minutes. Values of kinact/Ki were estimated according to the Knight et al method.

The test system of series [3] is E. coli infected rats (experimental abscess). Nature of the series: In vivo biodistribution of ex vivo labelled human leucocytes in E. coli infected rats. Also noted: species or system male Wistar rats. To be noted: ex vivo labelled human leucocytes injected i.v. How it is done: (§1) The model: into the right gracilis (thigh) muscle of male Wistar rats (250-325 g) were injected 1 ml/kg of an E. coli suspension containing >> 5×10^8/ml organisms.
(§2) Validation: the model was validated for use in the development of diagnostic imaging agents of infection/inflammation by the intravenous injection of ^99mTc-HMPAO ex-vivo labelled human wbc or ^67Ga-citrate when the abscesses were 24 hours old. Animals were dissected between 4 and 24 hours after injection. ^99mTc-labelled red blood cells were used as a negative control.
Screening of Ex vivo labelled human leucocytes in E. coli infected rats: A mixed population of human leucocytes was incubated with elastase inhibitor for 30 minutes at 37° C. The cells were then spun down and resuspended in a known volume of rat plasma for intravenous injection into rats bearing a 24 hour old abscess. Animals were dissected at 4 and 24 hours post injection.

Series [4] deals with mixed human red/white cells (granulocytes, monocytes + lymphocytes, erythrocytes). Nature of the series: In vitro cell uptake in mixed human red/white cells. Format: cell-based. Particulars: radiolabelled compound. How it is done: The radioactive compound was also incubated with an isolated leucocyte preparation to which an erythrocyte fraction had been added back. The packed erythrocytes obtained after blood sedimentation were washed twice with HBSS and then resuspended in their original blood volume with HBSS. Leucocytes obtained from 30 ml blood were resuspended in 0.5 ml erythrocyte suspension and 0.5 ml CFP. The cell suspension was then incubated with compound as above. Analysis of the distribution of activity in the cell pellet in the presence of red blood cells was carried out using Ficoll-Hypaque discontinuous density gradients (densities 1.04, 1.077 and 1.119 g/ml Histopaque steps).

Series [5] has as its system E. coli infected rats (experimental abscess). The series is described as follows: In vivo biodistribution in rats bearing experimental abscesses, direct intravenous injection. Also on record: species or system male Wistar rats. Particulars: for Relative conc. In infected area / Infected/normal / Infected/blood: directly injected i.v.; for Relative conc. In infected area: % injected dose in a % body weight; for Infected/normal: ratio of % id/g infected area to contralateral thigh; for Infected/blood: ratio of %/g infected area to blood. The protocol: as §1, §2
The animals were sacrificed at either 4 or 24 hours post injection and relevant tissues dissected.

Series [6] is described as follows: In vivo stability of iodinated HLE inhibitors (thyroid uptake). Also noted: species or system male Wistar rats. Particulars: i.v. injection. The protocol: The in vivo stability of radioiodinated HLE inhibitors was monitored by determination of the percentage uptake in the thyroid as a function of time after administration. Thus radioiodinated compounds and ^123I free iodide were injected into male Wistar rats. The percentage of injected dose distributing to the thyroid was calculated by dissection at 4 and 24 hours post injection and counting.

Series [7] has as its system human whole blood (granulocytes, monocytes + lymphocytes, erythrocytes). The series is described as follows: In vitro cell uptake in human whole blood. Particulars: 37° C. for 1 hour, radiolabelled compound. It is filed as cell-based. The protocol:
The radioactive compound was added to 1 ml whole blood anticoagulated with ACD and incubated at 37° C. for 1 hour. The blood was diluted with HBSS and the cellular component separated by centrifugation. Distribution of activity within the cellular pellet was assessed by separation of cell fractions on Ficoll-Hypaque gradients as above.

Where [8] appears, read: measured for non-radioactive iodine-labelled compounds and unlabelled chelate conjugates.

Turning to `CCC[C@@H](NC(=O)N1C(=O)C(CC)(CC)[C@@H]1Oc1cccnc1)c1ccc(I)cc1` [Compound 28, 4S-(Pyridyl-3-oxy)-1-[(R-α-n-propyl)-(4-iodo)benzylaminocarbonyl]-3,3-diethyl-2-azetidinone], in series [1], the “selectivity for granulocytes over a mixture of monocytes/lymphocytes” value (“selectivity … of monocytes/lymphocytes” for short) is on record as “some degree of selectivity for granulocytes”; the “% uptake in Gran. (granulocytes), WHITE CELLS” value was determined as 67.4%; the “% uptake in Mon. (monocytes + lymphocytes), WHITE CELLS” value is 14.8%. In addition, the “kinact/Ki (human elastase)” value in series [2] was found to be 650000. Moreover, the Potency (1/(M·s)), kinact/Ki in series [2] (setting [8]) was 650000 M⁻¹ s⁻¹. In series [3] (4 hrs post injection), the Infected/blood turned out to be 0.9, the Infected/normal came out at 1.5 and the “Relative conc. In infected area” value came out at 0.45. In series [3] (24 hrs post injection), the Infected/blood is given as 0.9, the Infected/normal stood at 1.2 and the “Relative conc. In infected area” value came to 0.16. In series [4], the “% uptake in Eryth. (erythrocytes), WHITE AND RED CELLS” value is given as 17.5%; the “% uptake in Gran. (granulocytes), WHITE AND RED CELLS” value was 41.9%; the “% uptake in Mon. (monocytes + lymphocytes), WHITE AND RED CELLS” value is recorded as 14.9%. For the same compound, in series [5] (4 hrs post injection), the “Relative conc. In infected area” value amounted to 0.22, the Infected/normal is 1.3 and the Infected/blood amounted to 1.1. Further, in series [5] (24 hrs post injection), the “Relative conc. In infected area” value is given as 0.12, the Infected/normal came out at 1.2 and the Infected/blood was 1.2.
Regarding `[123IH]` [[^123I]-iodide, reference compound], the “% dose in Thyroid” value came to 6.8 % dose in series [6] (4 hours) and 22.2 % dose in series [6] (24 hours).
Consider `CCC1(CC)C(=O)N(C(=O)NCCc2ccc(O)c(I)c2)C1S(=O)(=O)CCOC` (stereo not shown) [Compound 16, 4-[2-Methoxyethylsulfonyl]-1-[(4-hydroxy)(3-iodo)phenylethylaminocarbonyl]-3,3-diethyl-2-azetidinone], for which, in series [1], the “selectivity … of monocytes/lymphocytes” value is listed as “some degree of selectivity for granulocytes”; the “% uptake in Gran. (granulocytes), WHITE CELLS” value was found to be 0.55%; the “% uptake in Mon. (monocytes + lymphocytes), WHITE CELLS” value is given as 0.0%. In series [7], the “% uptake in Eryth. (erythrocytes), WHOLE BLOOD” value is given as 0.2%; the “% uptake in Gran. (granulocytes), WHOLE BLOOD” value was determined as 0.2%; the “% uptake in Mon. (monocytes + lymphocytes), WHOLE BLOOD” value was found to be 0.6%. Further, the kinact/KI in series [2] (measured for non-radioactive iodine-labelled compounds and unlabelled chelate conjugates, read-out: Potency (M/sec), kinact/Ki) is 2700 M⁻¹ s⁻¹. Also, the “% dose in Thyroid” value in series [6] (4 hours) turned out to be 0.3 % dose. For the same compound, the “% dose in Thyroid” value in series [6] (24 hours) amounted to 2.4 % dose. In series [4], the “% uptake in Eryth. (erythrocytes), WHITE AND RED CELLS” value is reported as 0.6%; the “% uptake in Gran. (granulocytes), WHITE AND RED CELLS” value is given as 0.3%; the “% uptake in Mon. (monocytes + lymphocytes), WHITE AND RED CELLS” value is reported as 0.6%.
For the compound `CCC[C@@H](NC(=O)N1C(=O)C(CC)(CC)[C@@H]1Oc1ccc(C(=O)N2CCN(C)CC2)cc1)c1ccc(I)cc1` [Compound 24, 4S-[4-[[(4-methyl)piperazin-1-yl]carbonyl]phenoxy]-1-[(R-α-n-propyl)-(4-iodo)benzylaminocarbonyl]-3,3-diethyl-2-azetidinone], in series [1], the “selectivity … of monocytes/lymphocytes” value is listed as “some degree of selectivity for granulocytes”; the “% uptake in Gran. (granulocytes), WHITE CELLS” value was 83.2%; the “% uptake in Mon. (monocytes + lymphocytes), WHITE CELLS” value came to 3.4%. Also, in series [7], the “% uptake in Eryth. (erythrocytes), WHOLE BLOOD” value is 16.6%; the “% uptake in Gran. (granulocytes), WHOLE BLOOD” value was 24.3%; the “% uptake in Mon. (monocytes + lymphocytes), WHOLE BLOOD” value stood at 13.6%. The “kinact/Ki (human elastase)” value in series [2] was determined as 2830000. The Potency (1/(M·s)), kinact/Ki in series [2] (setting [8]) turned out to be 2.83e+06 M⁻¹ s⁻¹. Also, in series [3] (4 hrs post injection), the Infected/blood stood at 0.9, the Infected/normal stood at 1.3 and the “Relative conc. In infected area” value was 0.53. Further, in series [3] (24 hrs post injection), the Infected/blood turned out to be 0.9, the Infected/normal was determined as 1.3 and the “Relative conc. In infected area” value was 0.20. Also, the “% dose in Thyroid” value in series [6] (4 hours) was 0.2 % dose. Further, the “% dose in Thyroid” value in series [6] (24 hours) was found to be 0.6 % dose. Moreover, in series [4], the “% uptake in Eryth. (erythrocytes), WHITE AND RED CELLS” value was found to be 41.7%; the “% uptake in Gran. (granulocytes), WHITE AND RED CELLS” value is listed as 40.4%; the “% uptake in Mon. (monocytes + lymphocytes), WHITE AND RED CELLS” value stood at 4.0%. Also, in series [5] (4 hrs post injection), the “Relative conc. In infected area” value was found to be 0.38, the Infected/normal was 1.3 and the Infected/blood is recorded as 1.3. In series [5] (24 hrs post injection), the “Relative conc. In infected area” value is given as 0.16, the Infected/normal was determined as 1.1 and the Infected/blood was 0.9.
On to `CCC1(CC)C(=O)N(C(=O)NCc2ccc(I)cc2)C1Oc1ccc(C(=O)N2CCN(C)CC2)cc1` (single isomer, unassigned) [Compound 4a], for which, in series [1], the “selectivity … of monocytes/lymphocytes” value is “some degree of selectivity for granulocytes”; the “% uptake in Gran. (granulocytes), WHITE CELLS” value is on record as 68.6%; the “% uptake in Mon. (monocytes + lymphocytes), WHITE CELLS” value is given as 14.3%. Also, the “kinact/Ki (human elastase)” value in series [2] is reported as 36000. The “Potency (M/sec), kinact/Ki” value in series [2] (setting [8]) is 63,000. The “% dose in Thyroid” value in series [6] (4 hours) amounted to 0.1 % dose. Besides, the “% dose in Thyroid” value in series [6] (24 hours) is listed as 0.3 % dose. Further, in series [4], the “% uptake in Eryth. (erythrocytes), WHITE AND RED CELLS” value is 8.4%; the “% uptake in Gran. (granulocytes), WHITE AND RED CELLS” value is 53.2%; the “% uptake in Mon. (monocytes + lymphocytes), WHITE AND RED CELLS” value was 14.6%. Besides, the “uptake in the infected region compared with the ^99mTc-rbc control” value in series [5] (^123I-labelled, rat model of inflammation/infection) is reported as “significantly better uptake in the infected region”. In addition, in series [5] (4 hrs post injection), the “Relative conc. In infected area” value turned out to be 0.52, the Infected/normal was 1.0 and the Infected/blood turned out to be 0.62. Besides, in series [5] (24 hrs post injection), the “Relative conc. In infected area” value is 0.28, the Infected/normal was found to be 1.6 and the Infected/blood stood at 0.53.
